The values below come from patent publication US12371428B2 (Exelixis, Inc., priority 2019, dated 2025).

For assay [1], the target named is KDR (phospho-KDR, VEGF165-stimulated HUVEC cells) (Homo sapiens (Human), UniProt P35968). Put plainly: KDR autophosphorylation ELISA in HUVEC cells (Example G). The settings on record: cellular activity; KDR autophosphorylation ELISA in HUVEC cells. Type of assay: cell-based. A digest of the protocol:
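HUVEC cells, serum-starved 24 h, were treated 1 h with an 8-point compound dilution (0.3% DMSO) and then stimulated with 100 ng/mL VEGF165 for 5 min. Phospho-KDR in lysates was quantified by sandwich ELISA against a phospho-KDR standard. IC50 from a 4-parameter logistic fit, normalised between stimulated DMSO and unstimulated controls.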
(An ELISA detects its analyte on a solid surface through an enzyme-linked reagent.)

Assay [2] has as its target Human MET (residues 956-1390) (Homo sapiens (Human), UniProt P08581). The assay can be described thus: Human Met kinase assay, HTRF KinEase (Example D-2). The class given is biochemical. The following applies: protocol of Example D-2; read-out: c-Met IC50. The procedure, abridged:
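MET kinase domain (956-1390), 0.1 ng/well, in buffer with 5 mM MgCl2, 1 mM DTT and 1 mM MnCl2, phosphorylated a biotinylated peptide at ATP Km for 40 min at RT; 10 concentrations, 3% DMSO final. EDTA-stopped HTRF read after 60 min; IC50 from a 4-parameter logistic fit.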
In general terms: In TR-FRET formats the signal depends on donor and acceptor labels being close together.

A value given as a limit tells only on which side of the number the result lay.

Sequence of Human MET (residues 956-1390) (P08581 956-1390): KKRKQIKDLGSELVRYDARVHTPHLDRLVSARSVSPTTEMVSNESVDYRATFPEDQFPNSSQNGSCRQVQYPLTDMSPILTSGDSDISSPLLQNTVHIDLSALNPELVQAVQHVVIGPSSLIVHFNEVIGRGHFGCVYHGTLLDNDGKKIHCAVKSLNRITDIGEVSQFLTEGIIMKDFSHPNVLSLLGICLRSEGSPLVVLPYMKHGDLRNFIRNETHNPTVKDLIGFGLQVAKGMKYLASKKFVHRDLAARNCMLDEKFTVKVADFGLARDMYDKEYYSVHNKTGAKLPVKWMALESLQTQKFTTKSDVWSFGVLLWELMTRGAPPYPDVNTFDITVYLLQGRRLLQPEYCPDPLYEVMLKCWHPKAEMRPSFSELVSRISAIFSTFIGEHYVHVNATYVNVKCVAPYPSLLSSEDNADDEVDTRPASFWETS
Sequence of KDR (phospho-KDR, VEGF165-stimulated HUVEC cells) (P35968 20-1356): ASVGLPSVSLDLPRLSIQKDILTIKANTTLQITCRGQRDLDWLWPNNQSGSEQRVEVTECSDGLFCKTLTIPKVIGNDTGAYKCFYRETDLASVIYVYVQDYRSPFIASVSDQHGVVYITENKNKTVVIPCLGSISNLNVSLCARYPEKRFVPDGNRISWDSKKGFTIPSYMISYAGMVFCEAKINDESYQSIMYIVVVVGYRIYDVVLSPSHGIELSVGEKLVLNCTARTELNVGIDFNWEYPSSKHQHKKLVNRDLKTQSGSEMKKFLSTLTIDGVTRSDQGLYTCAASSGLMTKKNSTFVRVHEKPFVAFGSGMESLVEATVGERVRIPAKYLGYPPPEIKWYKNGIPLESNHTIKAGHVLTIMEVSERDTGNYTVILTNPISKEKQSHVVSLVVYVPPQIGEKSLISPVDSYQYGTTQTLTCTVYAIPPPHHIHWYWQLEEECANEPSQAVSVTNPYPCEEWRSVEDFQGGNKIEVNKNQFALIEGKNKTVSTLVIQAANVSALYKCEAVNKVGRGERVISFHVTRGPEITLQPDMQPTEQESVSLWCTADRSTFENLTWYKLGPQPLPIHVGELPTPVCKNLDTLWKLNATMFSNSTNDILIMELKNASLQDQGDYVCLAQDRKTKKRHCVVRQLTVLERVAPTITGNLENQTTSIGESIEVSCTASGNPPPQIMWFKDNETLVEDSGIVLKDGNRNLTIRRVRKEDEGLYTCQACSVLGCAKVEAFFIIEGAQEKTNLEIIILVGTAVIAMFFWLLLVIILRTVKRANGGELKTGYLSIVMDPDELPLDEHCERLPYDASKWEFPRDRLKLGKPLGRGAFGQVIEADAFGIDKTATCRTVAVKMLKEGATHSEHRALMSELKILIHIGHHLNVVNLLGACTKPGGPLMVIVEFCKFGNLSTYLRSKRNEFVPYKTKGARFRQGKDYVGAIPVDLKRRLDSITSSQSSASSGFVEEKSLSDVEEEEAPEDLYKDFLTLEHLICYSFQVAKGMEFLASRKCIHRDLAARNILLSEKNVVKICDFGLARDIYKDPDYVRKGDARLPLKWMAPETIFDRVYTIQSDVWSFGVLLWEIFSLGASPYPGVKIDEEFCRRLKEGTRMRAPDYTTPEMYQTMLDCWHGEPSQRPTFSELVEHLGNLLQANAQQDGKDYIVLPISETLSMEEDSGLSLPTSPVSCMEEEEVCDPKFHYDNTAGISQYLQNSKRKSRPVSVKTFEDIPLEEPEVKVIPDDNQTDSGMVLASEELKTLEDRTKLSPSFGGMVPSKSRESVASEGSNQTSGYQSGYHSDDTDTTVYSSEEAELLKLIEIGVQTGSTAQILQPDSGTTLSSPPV

What is called IC50 is the concentration that inhibits the measured activity by half. As for `COc1cc2nccc(Oc3ccc(NC(=O)c4c(C)n(C)c(C)c(-c5ccc(F)cc5)c4=O)cc3)c2nc1OC` [Compound 523, N-[4-[(6,7-dimethoxy-1,5-naphthyridin-4-yl)oxy]phenyl]-5-(4-fluorophenyl)-1,2,6-trimethyl-4-oxopyridine-3-carboxamide], the IC50 in assay [1] was > 300 nM; in assay [2] it was < 100 nM.

On to `COc1cc2nccc(Oc3ccc(NC(=O)c4c(C)c(C)nn(-c5ccc(F)cc5)c4=O)cc3F)c2nc1OC` [Compound 524, N-[4-[(6,7-dimethoxy-1,5-naphthyridin-4-yl)oxy]-3-fluorophenyl]-2-(4-fluorophenyl)-5,6-dimethyl-3-oxopyridazine-4-carboxamide], for which the IC50 in assay [1] and in assay [2] was 100 to 300 nM each time.

Consider `COCc1nc(C)c(-c2ccc(F)cc2)c(O)c1C(=O)Nc1ccc(Oc2ccnc3ccc(OC)cc23)c(F)c1` [Compound 525, N-[3-fluoro-4-(6-methoxyquinolin-4-yl)oxyphenyl]-5-(4-fluorophenyl)-4-hydroxy-2-(methoxymethyl)-6-methylpyridine-3-carboxamide], for which the results for the IC50 in assay [1] and in assay [2] were < 100 nM and 100 to 300 nM, respectively.

For the compound `CCc1nc(C)c(-c2ccc(F)cc2C)c(O)c1C(=O)Nc1ccc(Oc2ccnc3ccc(OC)nc23)cc1` [Compound 526, 2-ethyl-5-(4-fluoro-2-methylphenyl)-4-hydroxy-N-[4-[(6-methoxy-1,5-naphthyridin-4-yl)oxy]phenyl]-6-methylpyridine-3-carboxamide], the IC50 in assay [1] is < 100 nM; in assay [2], 100 to 300 nM.

As for `COc1cnc2c(Oc3ccc(NC(=O)c4ccnn(-c5ccc(F)cc5C)c4=O)cc3)ccnc2c1` [Compound 530, 2-(4-fluoro-2-methylphenyl)-N-[4-[(7-methoxy-1,5-naphthyridin-4-yl)oxy]phenyl]-3-oxopyridazine-4-carboxamide], the concentration for half-maximal inhibition (IC50) is < 100 nM in assay [1] and 100 to 300 nM in assay [2].

For `COc1cc2nccc(Oc3ccc(NC(=O)c4cnc(SC(C)C)n(-c5ccc(F)cc5)c4=O)cc3)c2cc1OC` [Compound 539, N-[4-(6,7-dimethoxyquinolin-4-yl)oxyphenyl]-1-(4-fluorophenyl)-6-oxo-2-propan-2-ylsulfanylpyrimidine-5-carboxamide], the IC50 is > 300 nM in assay [1] and 100 to 300 nM in assay [2].

On to `COc1cc2nccc(Oc3ccc(NC(=O)c4cnc(C)c(-c5ccc(F)cc5)c4O)cc3F)c2nc1C` [Compound 541, N-[3-fluoro-4-[(7-methoxy-6-methyl-1,5-naphthyridin-4-yl)oxy]phenyl]-5-(4-fluorophenyl)-4-hydroxy-6-methylpyridine-3-carboxamide], for which the IC50 in assay [1] and in assay [2] was < 100 nM throughout.

As for `COc1cc2nccc(Oc3cc(F)c(NC(=O)c4cnc(C)c(-c5ccc(F)cc5)c4O)cc3F)c2nc1C` [Compound 542, N-[2,5-difluoro-4-[(7-methoxy-6-methyl-1,5-naphthyridin-4-yl)oxy]phenyl]-5-(4-fluorophenyl)-4-hydroxy-6-methylpyridine-3-carboxamide], the IC50 in assay [1] and in assay [2] was < 100 nM each time.

On to `CNc1nccc2c(Oc3ccc(NC(=O)c4cnc(C)n(-c5ccc(F)cc5)c4=O)cc3)ccnc12` [Compound 543, 1-(4-fluorophenyl)-2-methyl-N-[4-[[8-(methylamino)-1,7-naphthyridin-4-yl)oxy]phenyl]-6-oxopyrimidine-5-carboxamide], for which the IC50 in assay [1] and in assay [2] was 100 to 300 nM in each case.

With `COc1cc2nccc(Oc3ccc(NC(=O)c4cnc(COC(C)=O)c(-c5ccc(F)cc5)c4O)cc3F)c2nc1OC` [Compound 544, [5-[[4-[(6,7-dimethoxy-1,5-naphthyridin-4-yl)oxy]-3-fluorophenyl]carbamoyl]-3-(4-fluorophenyl)-4-hydroxypyridin-2-yl]methyl acetate], the IC50 in assay [1] and in assay [2] was < 100 nM each time.

Regarding `Cc1ccc(C(=O)Nc2ccc(Oc3ccnc4cc(O)cnc34)c(F)c2)c(=O)n1-c1ccc(F)cc1` [Compound 551, N-[3-Fluoro-4-[(7-hydroxy-1,5-naphthyridin-4-yl)oxy]phenyl]-1-(4-fluorophenyl)-6-methyl-2-oxopyridine-3-carboxamide], the IC50 in assay [1] and in assay [2] was < 100 nM in each case.

As for `COCCOc1cnc2c(Oc3ccc(NC(=O)c4ccc(C)n(-c5ccc(F)cc5)c4=O)cc3F)ccnc2c1` [Compound 552, N-[3-Fluoro-4-[[7-(2-methoxyethoxy)-1,5-naphthyridin-4-yl]oxy]phenyl]-1-(4-fluorophenyl)-6-methyl-2-oxopyridine-3-carboxamide], the IC50 in assay [1] and in assay [2] was < 100 nM throughout.

Consider `COc1cc2nccc(Oc3ccc(NC(=O)c4cn(C)c(C(=O)O)c(-c5ccc(F)cc5)c4=O)cc3F)c2nc1OC` [Compound 553, 5-[[4-[(6,7-Dimethoxy-1,5-naphthyridin-4-yl)oxy]-3-fluorophenyl]carbamoyl]-3-(4-fluorophenyl)-1-methyl-4-oxopyridine-2-carboxylic acid], for which the IC50 in assay [1] is > 300 nM; in assay [2] it was < 100 nM.

`Cc1nc(C)c(-c2ccc(F)cc2)c(O)c1C(=O)Nc1ccc(Oc2ccnc3cc(O)cnc23)c(F)c1` [Compound 554, N-[3-Fluoro-4-[(7-hydroxy-1,5-naphthyridin-4-yl)oxy]phenyl]-5-(4-fluorophenyl)-4-hydroxy-2,6-dimethylpyridine-3-carboxamide]: the IC50 in assay [1] and in assay [2] was < 100 nM throughout.

In the case of `COCCOc1cnc2c(Oc3ccc(NC(=O)c4c(C)nc(C)c(-c5ccc(F)cc5)c4O)cc3F)ccnc2c1` [Compound 555, N-[3-Fluoro-4-[[7-(2-methoxyethoxy)-1,5-naphthyridin-4-yl]oxy]phenyl]-5-(4-fluorophenyl)-4-hydroxy-2,6-dimethylpyridine-3-carboxamide], the IC50 in assay [1] and in assay [2] was < 100 nM in each case.

`COc1cc2nccc(Oc3ccc(NC(=O)c4cn(C)c(CF)c(-c5ccc(F)cc5C)c4=O)cc3F)c2nc1OC` [Compound 556, N-[4-[(6,7-Dimethoxy-1,5-naphthyridin-4-yl)oxy]-3-fluorophenyl]-6-(fluoromethyl)-5-(4-fluoro-2-methylphenyl)-1-methyl-4-oxopyridine-3-carboxamide]: the IC50 in assay [1] is < 100 nM; in assay [2] it was 100 to 300 nM.

Take `COCCOc1nc2c(Oc3ccc(NC(=O)c4cn(C)c(CF)c(-c5ccc(F)cc5)c4=O)cc3F)ccnc2cc1OC` [Compound 557, N-[3-Fluoro-4-[[7-methoxy-6-(2-methoxyethoxy)-1,5-naphthyridin-4-yl]oxy]phenyl]-6-(fluoromethyl)-5-(4-fluorophenyl)-1-methyl-4-oxopyridine-3-carboxamide]: the IC50 in assay [1] is 100 to 300 nM; in assay [2], < 100 nM.

Take `CCn1cc(C(=O)Nc2ccc(Oc3ccnc4cc(OC)c(OC)nc34)cc2)c(=O)c(-c2ccc(F)cc2)c1CF` [Compound 558, N-[4-[(6,7-Dimethoxy-1,5-naphthyridin-4-yl)oxy]phenyl]-1-ethyl-6-(fluoromethyl)-5-(4-fluorophenyl)-4-oxopyridine-3-carboxamide]: the IC50 in assay [1] and in assay [2] was 100 to 300 nM each time.

As for `CCn1cc(C(=O)Nc2ccc(Oc3ccnc4cc(OC)cnc34)c(F)c2)c(=O)c(-c2ccc(F)cc2)c1CF` [Compound 559, 1-Ethyl-N-[3-fluoro-4-[(7-methoxy-1,5-naphthyridin-4-yl)oxy]phenyl]-6-(fluoromethyl)-5-(4-fluorophenyl)-4-oxopyridine-3-carboxamide], the IC50 in assay [1] was > 300 nM; in assay [2], < 100 nM.

Turning to `COc1cc2nccc(Oc3ccc(NC(=O)c4cn(C)c(CF)c(-c5ccc(F)cc5)c4=O)cc3)c2nc1OC` [Compound 560, N-[4-[(6,7-Dimethoxy-1,5-naphthyridin-4-yl)oxy]phenyl]-6-(fluoromethyl)-5-(4-fluorophenyl)-1-methyl-4-oxopyridine-3-carboxamide], the IC50 in assay [1] was 100 to 300 nM; in assay [2] it was < 100 nM.

As to `COc1ccc2nccc(Oc3ccc(NC(=O)c4cn(C)c(CF)c(-c5ccc(F)cc5)c4=O)cc3F)c2n1` [Compound 561, N-[3-Fluoro-4-[(6-methoxy-1,5-naphthyridin-4-yl)oxy]phenyl]-6-(fluoromethyl)-5-(4-fluorophenyl)-1-methyl-4-oxopyridine-3-carboxamide], the IC50 in assay [1] is > 300 nM; in assay [2] it was 100 to 300 nM.

For the compound `CCn1cc(C(=O)Nc2ccc(Oc3ccnc4cc(OC)c(OC)nc34)c(F)c2)c(=O)c(-c2ccc(F)cc2)c1CF` [Compound 562, N-[4-[(6,7-Dimethoxy-1,5-naphthyridin-4-yl)oxy]-3-fluorophenyl]-1-ethyl-6-(fluoromethyl)-5-(4-fluorophenyl)-4-oxopyridine-3-carboxamide], the IC50 in assay [1] and in assay [2] was 100 to 300 nM each time.
